From PubChem BioAssay (NCI) come the findings set out here.

Some test systems named below: COLO 205 colon; K-562 leukemia; LOX IMVI melanoma; M14 melanoma; MOLT-4 leukemia; OVCAR-5 ovarian; SNB-75 CNS; SR leukemia; T-47D breast.
Experiment in all cases: inhibition of tumour cell growth, NCI panel, 48 h

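Test compounds were applied to cells in 96-well plates for 48 hours at 5 doses. Abbreviation: GI50, concentration required for 50% inhibition of growth. TGI is the concentration that stops growth completely.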 Bounds are passed on as bounds.

As for `C/C(=C\CCc1ccsc1)CC/C=C(\C)CCCN1CCN(CCO)CC1`, the GI50 was 1.89 µM in the assay on COLO 205 colon; 1.61 µM in the assay with K-562 leukemia; 1.8 µM in the assay with LOX IMVI melanoma; 2.05 µM in the assay on M14 melanoma; 2.48 µM in the assay on MOLT-4 leukemia; 4.04 µM with OVCAR-5 ovarian. Moreover, the GI50 in the assay with SNB-75 CNS is 2.45 µM; with SR leukemia, 1.93 µM; in the assay on T-47D breast, 2.03 µM. The TGI in the assay with COLO 205 colon was 3.95 µM; in the assay with K-562 leukemia, 4.48 µM; in the assay on LOX IMVI melanoma, 3.37 µM; in the assay on M14 melanoma, 4.2 µM; in the assay with MOLT-4 leukemia it was 6.29 µM; in the assay on OVCAR-5 ovarian it was 17.6 µM. The TGI in the assay with SNB-75 CNS was found to be 8.51 µM; in the assay with SR leukemia it was 4.71 µM; in the assay with T-47D breast, 5.09 µM.
Regarding `CCOC(=O)C/C(N)=C(\C#N)C(=O)OCC`, the TGI in the assay with COLO 205 colon, in the assay with K-562 leukemia, with LOX IMVI melanoma, in the assay with M14 melanoma, in the assay on MOLT-4 leukemia and with OVCAR-5 ovarian was over 100 µM throughout. Moreover, the TGI in the assay on SNB-75 CNS and in the assay with SR leukemia was over 100 µM each time.
With `COC(=O)CSc1n[nH]c(-c2ccccc2)n1`, the TGI in the assay on COLO 205 colon was over 100 µM; in the assay on K-562 leukemia, over 100 µM; with M14 melanoma, over 100 µM; in the assay with MOLT-4 leukemia, 43.2 µM; in the assay with OVCAR-5 ovarian it was over 100 µM; in the assay on SNB-75 CNS, over 100 µM. In the assay on SR leukemia, this molecule returned a TGI of 43.5 µM.
Consider `COc1ccc(/C=c2\sc3nnc(CCC(=O)Nc4cccc(C(F)(F)F)c4)n3c2=O)cc1`, for which the TGI is over 100 µM in the assay on COLO 205 colon; over 100 µM in the assay with K-562 leukemia; over 100 µM with LOX IMVI melanoma; over 100 µM with M14 melanoma; over 27.4 µM in the assay on MOLT-4 leukemia; over 100 µM in the assay on OVCAR-5 ovarian. In addition, the TGI was over 100 µM in the assay with SNB-75 CNS and 75.8 µM in the assay with SR leukemia.
In the case of `c1cc2ccc3cc2cc1CNCCOCCNCc1ccc2ccc(cc2c1)CNCCOCCNC3`, the GI50 in the assay with COLO 205 colon, with K-562 leukemia, in the assay with LOX IMVI melanoma, with M14 melanoma, in the assay on MOLT-4 leukemia and with OVCAR-5 ovarian was over 100 µM in each case. Moreover, the GI50 in the assay on SR leukemia and in the assay on T-47D breast was over 100 µM in each case. The TGI in the assay with COLO 205 colon, in the assay on K-562 leukemia, in the assay on LOX IMVI melanoma, in the assay with M14 melanoma, in the assay on MOLT-4 leukemia and with OVCAR-5 ovarian was over 100 µM throughout. Moreover, the TGI in the assay on SR leukemia and in the assay with T-47D breast was over 100 µM each time.
As to `COc1ccc2oc(-c3cc4cc(OC)ccc4o3)cc2c1`, the TGI in the assay with COLO 205 colon, in the assay on K-562 leukemia, in the assay with LOX IMVI melanoma, in the assay with M14 melanoma, in the assay on MOLT-4 leukemia and with OVCAR-5 ovarian was over 100 µM in each case. In the assay on SNB-75 CNS, the TGI was over 100 µM.
As for `CCOc1ccc(/C=N\N2C(=O)c3ccccc3C2=O)cc1`, the TGI with K-562 leukemia, in the assay on LOX IMVI melanoma, with M14 melanoma, in the assay with MOLT-4 leukemia, in the assay with OVCAR-5 ovarian and with SNB-75 CNS was over 100 µM throughout. In the assay on SR leukemia, this molecule yielded a TGI of over 100 µM.
Consider `O=C(N/N=C/c1ccncc1)c1ccc(C(F)(F)F)nc1Nc1cccc(C(F)(F)F)c1`, for which the GI50 with COLO 205 colon is 2.57 µM; in the assay on K-562 leukemia it was 2.69 µM; in the assay on LOX IMVI melanoma it was 0.913 µM; with M14 melanoma, 1.34 µM; with MOLT-4 leukemia, 2.53 µM; in the assay on OVCAR-5 ovarian, 2.83 µM. The GI50 with SNB-75 CNS was 4.34 µM; in the assay on SR leukemia it was 0.271 µM; in the assay with T-47D breast it was 1.78 µM. In addition, the TGI was 7.51 µM in the assay with COLO 205 colon; 11.8 µM in the assay on K-562 leukemia; 12.3 µM in the assay with LOX IMVI melanoma; 4.03 µM with M14 melanoma; 9.1 µM with MOLT-4 leukemia; 14.8 µM in the assay with OVCAR-5 ovarian. The TGI is 17 µM with SNB-75 CNS, 1.74 µM with SR leukemia and 10.5 µM in the assay with T-47D breast.
In the case of `CN=c1ss/c(=N\C(=S)N(C)C)n1C1CCCCC1`, the TGI in the assay with COLO 205 colon was over 31.6 µM; with K-562 leukemia, over 31.6 µM; with LOX IMVI melanoma, over 31.6 µM; with M14 melanoma, over 10 µM; in the assay on MOLT-4 leukemia, over 31.6 µM; with OVCAR-5 ovarian it was over 31.6 µM. Also, the TGI with SNB-75 CNS is over 10 µM.
Turning to `COc1cc(-c2ccccc2)c(OC)cc1CCl`, the TGI with COLO 205 colon, with K-562 leukemia, with M14 melanoma, with MOLT-4 leukemia, with OVCAR-5 ovarian and in the assay on SNB-75 CNS was over 100 µM throughout.
For `CCOP(=O)(CCN1CCN(CCCCCOc2cc3c(cc2OC)C(=O)N2CCC[C@H]2C=N3)CC1)OCC`, the GI50 was 3.39 µM in the assay with COLO 205 colon; 2.37 µM with K-562 leukemia; 8.01 µM in the assay with M14 melanoma; 2.16 µM with MOLT-4 leukemia; 27.7 µM with OVCAR-5 ovarian; 1.35 µM in the assay with SNB-75 CNS. Also, the GI50 in the assay with SR leukemia is 1.39 µM; with T-47D breast, 2.44 µM. Also, the TGI with COLO 205 colon was 12.9 µM; with K-562 leukemia it was over 100 µM; in the assay with M14 melanoma, 25.8 µM; with MOLT-4 leukemia, 6.37 µM; with OVCAR-5 ovarian it was 76.6 µM; in the assay with SNB-75 CNS it was 8.85 µM. The figures for the TGI in the assay on SR leukemia and in the assay with T-47D breast were 4.25 µM and 9.38 µM, respectively.
For `Cc1cc(C(=O)N2CCN(C)CC2)c2c(=O)n(-c3ccccc3)c(=O)n(CC(O)CN3CCN(c4ncccn4)CC3)c2n1` (stereo unspecified), the GI50 in the assay with COLO 205 colon, with K-562 leukemia, with LOX IMVI melanoma, with M14 melanoma, in the assay with MOLT-4 leukemia and in the assay with OVCAR-5 ovarian was over 100 µM in each case. For the same molecule, the GI50 with SNB-75 CNS was over 100 µM; with SR leukemia, 9.01 µM; with T-47D breast, over 100 µM. The TGI in the assay with COLO 205 colon, in the assay with K-562 leukemia, in the assay with LOX IMVI melanoma, in the assay with M14 melanoma, in the assay on MOLT-4 leukemia and in the assay on OVCAR-5 ovarian was over 100 µM each time. Further, the TGI with SNB-75 CNS, in the assay with SR leukemia and in the assay with T-47D breast was over 100 µM throughout.
